Read-outs that look alike come from different tables or passages of the source.
Tests used:
purified human BChE = molecular target: T1, purified human BChE (Homo sapiens, UniProt P06276); experiment: biochemical; assay type: biochemical
T1 construct: possibly also a gift of Dr Florian Nachon (the sentence is ambiguous)
Procedure: (§1) Acetylthiocholine (ATCh) and 5,5′-dithiobis(2-nitrobenzoic acid) (DTNB) were purchased from Sigma-Aldrich, St. Louis, MO, USA. ATCh was dissolved in water and DTNB in 0.1 M sodium phosphate buffer (pH 7.4). The 4-aminoquinilines were dissolved in DMSO and all further dilutions were made in water.
(§2) The sources of AChE and BChE were purified human BChE and recombinant human AChE that was kindly provided by Dr Florian Nachon (Département de Toxicologie, Armed Forces Biomedical Research Institute, Brétigny-sur-Orge, France). […] The enzymes were diluted in sodium phosphate buffer 0.1 M (pH 7.4) containing 0.1% BSA.
(§3) Enzyme activities were measured spectrophotometrically using a slightly modified Ellman method, as described earlier. […] At least three inhibitor concentrations for each substrate concentration were used in at least three experiments. The apparent inhibition constant (Ki,app) was calculated using the Hunter–Downs Equation and linear regression analysis:(1) Ki,app=vi·i/v0−vi=Ki+Ki/KS·s where the y-intercept determines the enzyme-inhibitor dissociation constant (Ki), while the x-intercept determines the enzyme-substrate dissociation constant, KS.
(§4) The Hunter–Downs Equation was used under the assumption that the substrate, due to relatively low concentrations used in experiments, would bind only to the catalytic site of the enzymes, while the inhibitors would bind to both CAS and/or PAs. This allowed the type of inhibition to be determined from Ki,app vs. substrate concentration ([S]) dependency on Hunter–Downs plot.
(§5) The final content of DMSO in the measurements was up to 0.2%. […] The measurements were performed at 25 °C on a Tecan Infinite M200Pro plate reader (Tecan Austria GmbH, Salzburg, Austria).

recombinant human AChE = molecular target: T2, recombinant human AChE (Homo sapiens, UniProt P22303); experiment: biochemical; assay type: biochemical; conditions: for IS: IS = Ki(BChE)/Ki(AChE), IS > 1 selective to AChE
T2 construct: gift of Dr Florian Nachon (Armed Forces Biomedical Research Institute, Brétigny-sur-Orge, France)
T2 sequence (P22303 32-614): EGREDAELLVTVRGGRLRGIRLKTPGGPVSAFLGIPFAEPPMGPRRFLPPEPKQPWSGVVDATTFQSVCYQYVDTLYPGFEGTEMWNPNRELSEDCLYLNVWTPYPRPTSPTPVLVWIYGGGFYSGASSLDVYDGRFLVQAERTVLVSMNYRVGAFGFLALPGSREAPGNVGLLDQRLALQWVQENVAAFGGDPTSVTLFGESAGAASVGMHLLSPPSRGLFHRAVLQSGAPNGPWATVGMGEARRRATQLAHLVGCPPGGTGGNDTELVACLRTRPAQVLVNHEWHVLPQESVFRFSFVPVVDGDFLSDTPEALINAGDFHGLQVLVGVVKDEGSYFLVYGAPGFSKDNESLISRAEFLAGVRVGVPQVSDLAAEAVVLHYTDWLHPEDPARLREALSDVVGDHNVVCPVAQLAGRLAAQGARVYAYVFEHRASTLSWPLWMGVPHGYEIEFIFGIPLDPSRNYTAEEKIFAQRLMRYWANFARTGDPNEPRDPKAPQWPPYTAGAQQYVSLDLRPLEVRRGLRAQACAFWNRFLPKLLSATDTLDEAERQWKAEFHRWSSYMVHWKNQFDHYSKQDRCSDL
Procedure: as §1, §2, §3, §4, §5

[1] = Ferric reducing antioxidant power (FRAP) assay; conditions: mean ± standard error of three experiments;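 also: expressed as µM Fe2+ equivalents from an FeSO4·7H2O standard curve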
Procedure: . All the chemicals were purchased from Sigma-Aldrich (St. Louis, MO, USA), except for tripyridyltriazine (TPTZ) (Fluka, Buchs, Switzerland) and FeCl3 (Kemika, Zagreb, Croatia). The FRAP assay was assessed according to Benzie and Strain [53] with slight procedure adjustments for 96-well microplates. The method is based on the reduction of the ferric-tripyridyltriazine (Fe^3+-TPTZ) complex to ferrous tripyridyltriazine (Fe^2+-TPTZ) by the action of electron-donating compounds at a low pH. Briefly, the FRAP reagent was prepared by mixing acetate buffer (300 mM, pH 3.6), a solution of 10 mM TPTZ in 40 mM HCl, and 20 mM FeCl3 at 10:1:1 (v/v/v). Then, 240 μL of FRAP reagent and 10 μL of sample solution were added to a 96-well plate and incubated at 37 °C for 60 min. The absorbance was measured at 593 nm using a microplate reader (Infinite M200PRO, Tecan Austria GmbH, Salzburg, Austria) against a blank. The reducing capacity was determined for 10 and 100 µM compound concentrations. […]. All measurements were performed in three independent experiments. FRAP values, denominating the reduction of ferric-tripyridyltriazine (Fe^3+-TPTZ) to ferrous tripyridyltriazine (Fe^2+-TPTZ) by 4-aminoquinolines were calculated based on a standard curve obtained using […].

[2] = Reverse-phase thin-layer chromatographic lipophilicity (RF, RM0); assay type: physicochemical; conditions: for RM0: intercept of RM = RM0 + bC; for b: slope of RM = RM0 + bC; for RF, Methanol/Water/Hydrochloric acid (conc.), mobile phase I / RF, Dioxane/Water/Hydrochloric acid (conc.), mobile phase II / RF, Methanol/Water/Hydrochloric acid (conc.), mobile phase II / RF, Acetone/Water/Hydrochloric acid (conc.), mobile phase III / RF, Dioxane/Water/Hydrochloric acid (conc.), mobile phase III / RF, Methanol/Water/Hydrochloric acid (conc.), mobile phase III / RF, Dioxane/Water/Hydrochloric acid (conc.), mobile phase IV / RF, Acetone/Water/Hydrochloric acid (conc.), mobile phase IV / RF, Methanol/Water/Hydrochloric acid (conc.), mobile phase IV / RF, Acetone/Water/Hydrochloric acid (conc.), mobile phase IX / RF, Methanol/Water/Hydrochloric acid (conc.), mobile phase IX / RF, Dioxane/Water/Hydrochloric acid (conc.), mobile phase V / RF, Acetone/Water/Hydrochloric acid (conc.), mobile phase V / RF, Methanol/Water/Hydrochloric acid (conc.), mobile phase V / RF, Dioxane/Water/Hydrochloric acid (conc.), mobile phase VI / RF, Acetone/Water/Hydrochloric acid (conc.), mobile phase VI / RF, Methanol/Water/Hydrochloric acid (conc.), mobile phase VI / RF, Acetone/Water/Hydrochloric acid (conc.), mobile phase VII / RF, Methanol/Water/Hydrochloric acid (conc.), mobile phase VII / RF, Acetone/Water/Hydrochloric acid (conc.), mobile phase VIII / RF, Methanol/Water/Hydrochloric acid (conc.), mobile phase VIII: RP-18 silica; for RF, Methanol/Water/Hydrochloric acid (conc.), mobile phase I: I = 90%MeOH/5%H2O/5%HCl; for RF, Dioxane/Water/Hydrochloric acid (conc.), mobile phase II: II = 80%Dioxane/15%H2O/5%HCl; for RF, Methanol/Water/Hydrochloric acid (conc.), mobile phase II: II = 85%MeOH/10%H2O/5%HCl; for RF, Acetone/Water/Hydrochloric acid (conc.), mobile phase III: III = 70%AC/25%H2O/5%HCl; for RF, Dioxane/Water/Hydrochloric acid (conc.), mobile phase III: III = 70%Dioxane/25%H2O/5%HCl; for RF, Methanol/Water/Hydrochloric acid (conc.), mobile phase III: III = 80%MeOH/15%H2O/5%HCl; for RF, Dioxane/Water/Hydrochloric acid (conc.), mobile phase IV: IV = 60%Dioxane/35%H2O/5%HCl; for RF, Acetone/Water/Hydrochloric acid (conc.), mobile phase IV: IV = 65%AC/30%H2O/5%HCl; for RF, Methanol/Water/Hydrochloric acid (conc.), mobile phase IV: IV = 75%MeOH/20%H2O/5%HCl; for RF, Acetone/Water/Hydrochloric acid (conc.), mobile phase IX: IX = 40%AC/55%H2O/5%HCl; for RF, Methanol/Water/Hydrochloric acid (conc.), mobile phase IX: IX = 50%MeOH/45%H2O/5%HCl; for RF, Dioxane/Water/Hydrochloric acid (conc.), mobile phase V: V = 50%Dioxane/45%H2O/5%HCl; for RF, Acetone/Water/Hydrochloric acid (conc.), mobile phase V: V = 60%AC/35%H2O/5%HCl; for RF, Methanol/Water/Hydrochloric acid (conc.), mobile phase V: V = 70%MeOH/25%H2O/5%HCl; for RF, Dioxane/Water/Hydrochloric acid (conc.), mobile phase VI: VI = 40%Dioxane/55%H2O/5%HCl; for RF, Acetone/Water/Hydrochloric acid (conc.), mobile phase VI: VI = 55%AC/40%H2O/5%HCl; for RF, Methanol/Water/Hydrochloric acid (conc.), mobile phase VI: VI = 65%MeOH/30%H2O/5%HCl; for RF, Acetone/Water/Hydrochloric acid (conc.), mobile phase VII: VII = 50%AC/45%H2O/5%HCl; for RF, Methanol/Water/Hydrochloric acid (conc.), mobile phase VII: VII = 60%MeOH/35%H2O/5%HCl; for RF, Acetone/Water/Hydrochloric acid (conc.), mobile phase VIII: VIII = 45%AC/50%H2O/5%HCl; for RF, Methanol/Water/Hydrochloric acid (conc.), mobile phase VIII: VIII = 55%MeOH/40%H2O/5%HCl
Procedure: Chromatographic determination of lipophilicity
Merck, Darmstadt, Germany). The mobile phase contained organic modifier (methanol, acetone or dioxane), water and hydrochloric acid.
Methanol was varied in the range […]
with an increment of 10%. […]
before chromatogram development. The solvent developing distance was 4.5 cm. Detection of […]
All experiments were performed at ambient temperature (22±2 °C). Retention parameters were calculated as previously described. […]

[3] = logarithm of Ki in µM, BChE, dependent variable of the QSAR model, read-out: Y Measured 2 log(ki)Bche, log (Ki/µM BChE) (converted)
[4] = ± standard error, 25 °C, ATCh substrate, read-out: Ki BChE
[5] = log (Ki/µM AChE), read-out: Y Measured 1 log(ki)Ache (converted)
[6] = ± standard error, 25 °C, ATCh substrate, read-out: Ki AChE
[7] = Acetone/Water/Hydrochloric acid (conc.)
[8] = Dioxane/Water/Hydrochloric acid (conc.)
[9] = Methanol/Water/Hydrochloric acid (conc.)

T1 sequence (P06276 29-602): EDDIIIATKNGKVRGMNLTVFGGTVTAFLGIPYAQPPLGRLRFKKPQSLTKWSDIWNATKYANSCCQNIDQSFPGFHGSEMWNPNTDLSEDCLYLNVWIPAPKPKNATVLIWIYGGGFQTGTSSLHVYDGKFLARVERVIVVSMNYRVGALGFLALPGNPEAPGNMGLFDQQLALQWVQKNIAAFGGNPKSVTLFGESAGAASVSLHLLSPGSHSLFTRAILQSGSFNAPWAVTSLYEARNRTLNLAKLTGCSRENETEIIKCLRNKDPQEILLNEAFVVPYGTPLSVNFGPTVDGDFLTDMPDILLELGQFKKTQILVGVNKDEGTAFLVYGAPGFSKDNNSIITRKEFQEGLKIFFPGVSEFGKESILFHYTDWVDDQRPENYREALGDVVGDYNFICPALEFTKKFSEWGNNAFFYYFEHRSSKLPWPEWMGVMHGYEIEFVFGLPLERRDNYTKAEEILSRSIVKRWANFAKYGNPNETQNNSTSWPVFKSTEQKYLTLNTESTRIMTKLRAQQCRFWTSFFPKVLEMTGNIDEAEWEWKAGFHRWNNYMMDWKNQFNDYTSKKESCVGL

## FC(F)(F)c1ccc2c(NCCNCC34CC5CC(CC(C5)C3)C4)ccnc2c1 [Compound 6]
Purified human BChE; [3]
  Ki: 3.5 µM
Purified human BChE; [4]
  Ki: 3.5 ± 0.3 µM
Recombinant human AChE
  IS: 2.9
Recombinant human AChE; [5]
  Ki: 1.2 µM
Recombinant human AChE; [6]
  Ki: 1.2 ± 0.1 µM
[1]; 10 µM compound
  FRAP: 4.6 ± 0.8 µM
[1]; 100 µM compound
  FRAP: 25 ± 6 µM
[2]; [7]
  RM0: 2.0143
  b: 3.169
[2]; [8]
  RM0: 0.9723
  b: 1.909
[2]; [9]
  RM0: 2.421
  b: 3.208
[2]
  RF, Methanol/Water/Hydrochloric acid (conc.), mobile phase I: 0.73
  RF, Dioxane/Water/Hydrochloric acid (conc.), mobile phase II: 0.74
  RF, Methanol/Water/Hydrochloric acid (conc.), mobile phase II: 0.67
  RF, Acetone/Water/Hydrochloric acid (conc.), mobile phase III: 0.57
  RF, Dioxane/Water/Hydrochloric acid (conc.), mobile phase III: 0.7
  RF, Methanol/Water/Hydrochloric acid (conc.), mobile phase III: 0.51
  RF, Dioxane/Water/Hydrochloric acid (conc.), mobile phase IV: 0.7
  RF, Acetone/Water/Hydrochloric acid (conc.), mobile phase IV: 0.53
  RF, Methanol/Water/Hydrochloric acid (conc.), mobile phase IV: 0.53
  RF, Acetone/Water/Hydrochloric acid (conc.), mobile phase IX: 0.11
  RF, Methanol/Water/Hydrochloric acid (conc.), mobile phase IX: 0.11
  RF, Dioxane/Water/Hydrochloric acid (conc.), mobile phase V: 0.49
  RF, Acetone/Water/Hydrochloric acid (conc.), mobile phase V: 0.45
  RF, Methanol/Water/Hydrochloric acid (conc.), mobile phase V: 0.44
  RF, Dioxane/Water/Hydrochloric acid (conc.), mobile phase VI: 0.33
  RF, Acetone/Water/Hydrochloric acid (conc.), mobile phase VI: 0.36
  RF, Methanol/Water/Hydrochloric acid (conc.), mobile phase VI: 0.39
  RF, Acetone/Water/Hydrochloric acid (conc.), mobile phase VII: 0.32
  RF, Methanol/Water/Hydrochloric acid (conc.), mobile phase VII: 0.23
  RF, Acetone/Water/Hydrochloric acid (conc.), mobile phase VIII: 0.24
  RF, Methanol/Water/Hydrochloric acid (conc.), mobile phase VIII: 0.18

## FC(F)(F)c1ccc2c(NCCCNCC34CC5CC(CC(C5)C3)C4)ccnc2c1 [Compound 7]
Purified human BChE; [3]
  Ki: 2.6 µM
Purified human BChE; [4]
  Ki: 2.6 ± 0.2 µM
Recombinant human AChE
  IS: 2.4
Recombinant human AChE; [5]
  Ki: 1.1 µM
Recombinant human AChE; [6]
  Ki: 1.1 µM
[1]; 10 µM compound
  FRAP: 7.1 ± 2.1 µM
[1]; 100 µM compound
  FRAP: 21 ± 7 µM
[2]; [7]
  RM0: 2.012
  b: 3.156
[2]; [8]
  RM0: 0.9445
  b: 1.874
[2]; [9]
  RM0: 2.606
  b: 3.427
[2]
  RF, Methanol/Water/Hydrochloric acid (conc.), mobile phase I: 0.73
  RF, Dioxane/Water/Hydrochloric acid (conc.), mobile phase II: 0.74
  RF, Methanol/Water/Hydrochloric acid (conc.), mobile phase II: 0.67
  RF, Acetone/Water/Hydrochloric acid (conc.), mobile phase III: 0.57
  RF, Dioxane/Water/Hydrochloric acid (conc.), mobile phase III: 0.7
  RF, Methanol/Water/Hydrochloric acid (conc.), mobile phase III: 0.51
  RF, Dioxane/Water/Hydrochloric acid (conc.), mobile phase IV: 0.7
  RF, Acetone/Water/Hydrochloric acid (conc.), mobile phase IV: 0.54
  RF, Methanol/Water/Hydrochloric acid (conc.), mobile phase IV: 0.51
  RF, Acetone/Water/Hydrochloric acid (conc.), mobile phase IX: 0.11
  RF, Methanol/Water/Hydrochloric acid (conc.), mobile phase IX: 0.09
  RF, Dioxane/Water/Hydrochloric acid (conc.), mobile phase V: 0.51
  RF, Acetone/Water/Hydrochloric acid (conc.), mobile phase V: 0.42
  RF, Methanol/Water/Hydrochloric acid (conc.), mobile phase V: 0.44
  RF, Dioxane/Water/Hydrochloric acid (conc.), mobile phase VI: 0.33
  RF, Acetone/Water/Hydrochloric acid (conc.), mobile phase VI: 0.36
  RF, Methanol/Water/Hydrochloric acid (conc.), mobile phase VI: 0.36
  RF, Acetone/Water/Hydrochloric acid (conc.), mobile phase VII: 0.32
  RF, Methanol/Water/Hydrochloric acid (conc.), mobile phase VII: 0.23
  RF, Acetone/Water/Hydrochloric acid (conc.), mobile phase VIII: 0.24
  RF, Methanol/Water/Hydrochloric acid (conc.), mobile phase VIII: 0.15
